Data on one compound can be found in BindingDB's records for doi:10.1016/s0960-894x(00)00661-2 (Niddk, 2001).

The test concerns the target T1, Corticotropin-releasing factor receptor 1 (Rattus norvegicus, UniProt P35353).
T1 sequence (P35353 whole entry): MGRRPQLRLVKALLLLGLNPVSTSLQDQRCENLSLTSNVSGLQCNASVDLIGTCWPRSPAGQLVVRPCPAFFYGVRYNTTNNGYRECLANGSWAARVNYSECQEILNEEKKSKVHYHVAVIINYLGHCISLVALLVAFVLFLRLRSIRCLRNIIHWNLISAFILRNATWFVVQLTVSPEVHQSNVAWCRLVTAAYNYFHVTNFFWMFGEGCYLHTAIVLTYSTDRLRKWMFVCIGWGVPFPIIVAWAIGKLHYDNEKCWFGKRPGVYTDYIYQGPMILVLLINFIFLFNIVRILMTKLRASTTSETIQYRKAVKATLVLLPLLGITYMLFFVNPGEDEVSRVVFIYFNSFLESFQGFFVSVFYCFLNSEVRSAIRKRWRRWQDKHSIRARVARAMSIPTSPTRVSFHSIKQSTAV
As to the kind of experiment: ChEBML_51283. The text has this: Binding affinity towards Corticotropin releasing hormone receptor type 1 of rat cerebellum using [125I]Tyr-sauvagine as radioligand.

Take `CCC[CH2][Sn]([CH2]CCC)([CH2]CCC)[c]1cc(Cl)c(Nc2nc(C)nc(N(CCC)CC3CC3)c2Cl)c(Cl)c1` [5-Chloro-N-cyclopropylmethyl-N'-(2,6-dichloro-4-tributylstannanyl-phenyl)-2-methyl-N-propyl-pyrimidine-4,6-diamine]: the affinity corresponds to a Ki of 3 nM.
